Laboratory results from US12421257B2, “Compositions and methods for inhibiting group II intron RNA” (YALE UNIVERSITY, priority 2018, dated 2025).
In brackets after ≈: the same amount, converted by molar mass.

How the values were obtained:
[1] = tested on: ai5γ group II intron (D135 ribozyme); test: Fluorescent D135 ribozyme cleavage assay (IC50); assay type: biochemical, Saccharomyces cerevisiae; conditions: for IC50: D135 ribozyme cleavage of substrate 17/2 DL, 100 mM MgCl2, 500 mM KCl, 37° C., 10 minutes; for In vitro inhibitory activity, SAR statement (in words): relative to parent scaffold
Method: The D135 ribozyme (Su et al., 2005, Nucleic Acids Res, 33:6674-6687), fluorescently labeled oligo substrate 17/2 DL (FIG. 1A-FIG. 1D) (both at 20 nM final concentrations in 50 mM MOPS, pH 7.0, 100 mM MgCl2, 0.5M KCl), and the test compounds (final concentration of 10 μM in 50 mM MOPS, pH 7.0, 100 mM MgCl2, 0.5M KCl) were aliquoted onto black non-binding 384-well plates (Corning 3757) using the multidrop combi (ThermoFisherScientific) and pintool (V & P Scientific). The reaction mixtures were incubated at 37° C. for 45 minutes, then the reaction was quenched with 100 mM EDTA and fluorescence intensity was analyzed on a Tecan Infinite multimode plate reader (λex 520 nm, λem 560 nm, 5 nm bandwidth). Data were normalized to untreated wells and wells lacking the D135 ribozyme, and percent of inhibition was calculated using ActivityBase (IDBS). The Z′-factor was calculated as described (Zhang et al., 1999, J Biomol Screen, 4:67-73): Z′=1−3×(σp+σn)/|μp−μn|, • where μp and σn are mean value and standard deviation for the positive control (substrate only), and where μn and σn are mean value and standard deviation for the negative control (no compound). The average Z′-factor from the screen was 0.83±0.03. IC50 Measurement for the Small Molecule Inhibition of the D135 Ribozyme Cleavage Reaction.
Black 96-well plates (Corning 3695) were filled with 50 μl of solution containing 20 nM D135 ribozyme, 20 nM double-labeled substrate 17/2 DL and small molecule inhibitor in 50 mM MOPS, pH 7.0, 100 mM MgCl2 and 500 mM KCl. Small molecule inhibitors were tested at 19 different concentrations ranging from 5 nM to 1 mM. Plates were incubated at 37° C. for 10 minutes, then reaction mixtures were quenched with 100 mM EDTA and analyzed on the Synergy H1 plate reader (BioTek). Each experiment was performed in triplicate. Data were fit to a 4-parameter logistic function c+(d−c)/(1+(x/a)^b), where a is the IC50, b is the slope parameter, c is the minimum response and d is the maximum response. Data are reported as average±s.e.m

[2] = tested on: C. parapsilosis; test: MIC determination against C. parapsilosis; assay type: cell-based, Candida parapsilosis; conditions: RPMI-1640, 35° C. or 37° C., turbidity after 24 and 48 hours; for MIC: Lodderomyces parapsilosis
Method: Minimal inhibitory concentrations (MICs) for C. parapsilosis were determined in a final volume of 100 μl. Fresh stock solutions of control antifungal drugs (Amphotericin B and Itraconazole) and of test compounds were prepared at 3.2 mg/ml and at 12.8 mg/ml respectively in DMSO. After placing the stock in the first well, solutions of test compounds and antifungal controls were serially diluted 1:2 with DMSO into the first […] successive wells of a 12-well row on a 96-well plate (as described above). After dilution, 2.5 μl from each of these 10 wells were transferred onto a separate 96-well plate and diluted with 122.5 μl of RPMI-1640 medium (Sigma). Wells 11 and 12 contained 2.5 μl DMSO and 122.5 μl of RPMI-1640 as a positive growth control (no compound) and sterility control (no inoculum added). A 50 μl volume was taken from each of the RPMI dilutions (wells 1-12) and transferred to the wells of a third 96-well plate (assay plate), where they were mixed with an equal volume (50 μl) of freshly prepared inoculum of C. parapsilosis in RPMI-1640 medium, set at a density to provide the 0.5×10^3 to 2.5×10^3 colony forming units per 1 mL (except for the sterility control). Sterility control was mixed with 50 μl of sterile medium.
The final concentration range of the assay was 0.25-128 μg/ml for test compounds and 0.0625-32 μg/ml for Amphotericin B and Itraconazole. The final concentration of DMSO was 1%. The assay plate was incubated at 35° C. or 37° C. and visually analyzed for turbidity after 24 and 48 hours of incubation. The lowest compound concentration at which no growth was apparent is reported as the MIC. All experiments were performed in triplicate.

[3] = biological target: ai5γ group II intron; test: Radioanalytic self-splicing assay of SE RNA (Ki); assay type: biochemical, Saccharomyces cerevisiae; conditions: 8 mM MgCl2, 100 mM KCl, pH 7.5, 30° C.
Method: Internally labeled SE RNA (2 nM) was incubated with various concentrations of inhibitor compound under near-physiological conditions (in 50 mM MOPS, pH 7.5, 8 mM MgCl2, 100 mM KCl) at 30° C. Aliquots at different time points were quenched and analyzed on 5% denaturing polyacrylamide gel as previously described (Daniels et al., 1996, Journal of molecular biology, 256:31-49). Data were fit to a single-exponential equation to determine the first order rate constants (kobs). The latter were then plotted against the concentration of the inhibitor and fit to the equation for non-competitive inhibition to determine Ki values: kobs=kmax/(1+[I]/Ki), where kobs and kmax are the first order rate constants measured in the presence and in the absence of the inhibitor, respectively, [I] is the concentration of the inhibitor and Ki is the inhibition constant. Experiments were performed four times for API-014, three times for APY-090, Intronistat A, and Intronistat B and twice for the remaining compounds to ensure reproducibility. Data represent average±s.e.m.

[4] = tested on: HEK-293T cells; test: Cytotoxicity in HEK-293T cells (Cell Titer Glo); assay type: cell-based, human; conditions: Homo sapiens, cytotoxicity, 24 hours with compound, read-out: IC50 HEK-293
Method: HEK-293T cells were cultured in Dulbecco's Modified Eagle's Medium (DMEM) (Gibco) supplemented with 10% Fetal Bovine Serum (FBS, Gibco) and 100 U/ml of Penicillin-Streptomycin (Gibco) at 37° C. and 5% CO2. For the cytotoxicity experiments, cells were aliquoted into black 96-well plates with a clear bottom (Corning 3603) at a concentration of 10,000 cells per well. The cells were grown at 37° C., 5% CO2 for 5-6 hours, then the medium was replaced with the same medium without FBS and cells were grown at 37° C., 5% CO2 for 24 hours. Freshly prepared stock solutions of test compounds (12.8 mg/ml in DMSO) were serially diluted 1:2 with DMSO into the first 11 successive wells of a 12-well row on a 96-well plate as described above. Well 12 was used as a growth control (no compound). […] After incubation, cell viability was determined using the luminescent Cell Titer Glo cell viability assay (Promega), in which 100 μl of the assay reagent was added to each well of the assay plate. After gentle shaking for 7-10 minutes, the plates were analyzed on a Synergy H1 plate reader (BioTek). Luminescence was plotted against the compound concentration and IC50 values were determined by fitting the data to a 4-parameter logistic function c+(d−c)/(1+(x/a)^b), where a is the IC50, b is the slope parameter, c is the minimum response and d is the maximum response. Experiments were replicated to ensure reproducibility.

[5] = tested on: S. cerevisiae; test: Yeast respiration assay in S. cerevisiae (MIC in YPD / YPGE); assay type: cell-based, Saccharomyces cerevisiae; conditions: 30° C.
Method: Yeast respiration assays were conducted either in liquid YPD media (BD Bacto Yeast Extract, BD Bacto Peptone, 2% glucose) or in YPGE media (BD Bacto Yeast Extract, BD Bacto Peptone, 3% glycerol, 3% ethanol), essentially as described for the antifungal MIC assays (see below). To initiate these experiments, 100 μl of a fresh stock solution was prepared for each compound (3.2 mg/ml for Amphotericin B and 12.8 mg/ml for each test compounds) in DMSO. This concentrated stock solution was placed in the first well of 12-well row on a 96-well plate. The subsequent nine wells in this row contained 50 μl of DMSO for serial dilution. From the first well, 50 μl of the compound stock was withdrawn, transferred to the second well and mixed. This process was repeated from the second and subsequent wells, resulting in a 1:2 serial dilution of the stock into DMSO. Wells 11 and 12 contained DMSO only, to be used as no compound control and sterility control, with no inoculum added, respectively. After preparing this plate, 2.5 μl from each of the 12 wells was transferred to the wells of a separate 96-well plate, each of which contained 122.5 μl of YPD or YPGE medium, resulting in a set of serial dilutions of compound into growth media in a volume of 125 μl. Then 50 μl from each of these dilutions were transferred onto a third 96-well plate (the assay plate) and mixed with an equal volume (50 μl) of freshly prepared yeast inoculum in YPD or YPGE medium set to provide 0.5×10^3 to 2.5×10^3 colony forming units per 1 mL (wells 1-11), or YPD/YPGE alone (sterility control, well 12). The final compound concentration range of the assay was 0.25-128 μg/ml for test compounds and 0.0625-32 μg/ml for Amphotericin B. The final concentration of DMSO was 1%. Plates were incubated at 30° C. and visually analyzed for turbidity after 24 and 48 hours of incubation. The lowest compound concentration at which no growth was apparent is reported as the MIC (Table 1). All experiments were performed in triplicate.

| IC50 [1] [µM] | MIC [2] [µg/mL] | Ki [3] [µM] | MIC in YPD (glucose) ([5]; YPD medium) [µg/mL] | MIC in YPGE (glycerol) ([5]; YPGE medium) [µg/mL] | MIC C. parapsilosis [2] [µg/mL] | SMILES | IC50 [4] [µg/mL] | In vitro inhibitory activity, SAR statement (in words) [1] |
| --- | --- | --- | --- | --- | --- | --- | --- | --- |
| 8 | 16 (≈ 51.9 µM) | 5.4 |  |  |  | O=C(CCc1ccc2ccccc2c1)c1cc(O)c(O)c(O)c1 [APY-076] | 7 |  |
| 30 ± 4 | 64 (≈ 200 µM) | 44 ± 11 |  |  |  | COc1ccc(CNC(=O)c2cc(O)c(O)c(O)c2)cc1OC [APY-077, N-[(3,4-Dimethoxyphenyl)methyl]-3,4,5-trihydroxybenzamide] | > 32 | substantial loss of activity |
| 27 | 64 (≈ 192 µM) | 16 |  |  |  | COc1ccc(CCNC(=O)c2cc(O)c(O)c(O)c2)cc1OC [APY-078] | > 128 |  |
| 20 | 32 (≈ 99 µM) | 32 |  |  |  | C[C@H](NC(=O)c1cc(O)c(O)c(O)c1)c1cccc2ccccc12 [APY-079] | 4.6 |  |
| 3.3 ± 0.3 | 8 (≈ 23.6 µM) | 0.9 ± 0.1 |  |  |  | O=C(c1cc(O)c(O)c(O)c1)c1cc2cc(Cl)cc(Cl)c2o1 [APY-083, 5-[(5,7-Dichloro-1-benzofuran-2-yl)carbonyl]benzene-1,2,3-triol] | 0.5 ± 0.1 | without significant loss of function |
| 2.4 ± 0.4 | 8 (≈ 18 µM) | 4.5 ± 0.9 |  |  |  | CCN(CC)C(=O)c1ccc(-c2ccc3oc(C(=O)c4cc(O)c(O)c(O)c4)cc3c2)cc1 [APY-091, N,N-Diethyl-4-{2-[(3,4,5-trihydroxyphenyl)carbonyl]-1-benzofuran-5-yl}benzamide] | 5.35 ± 0.05 |  |
| 2.8 ± 0.2 | 8 (≈ 19.3 µM) | 3.9 ± 0.5 |  |  |  | O=C(c1cc(O)c(O)c(O)c1)c1cc2cc(-c3ccc(C(F)(F)F)nc3)ccc2o1 [APY-097, 5-({5-[6-(Trifluoromethyl)pyridin-3-yl]-1-benzofuran-2-yl}carbonyl)benzene-1,2,3-triol] | 5.4 ± 0.6 |  |
| > 1000 | > 128 | > 1000 |  |  |  | O=C(c1cc2cc(-c3ccc(CO)cc3)ccc2o1)c1ccc(B(O)O)cc1F [APY-098, [3-Fluoro-4-({5-[4-(hydroxymethyl)phenyl]-1-benzofuran-2-yl}carbonyl)phenyl]boronic acid] | 11 ± 3 | nearly complete loss of activity |
|  |  |  | 2 (≈ 2.16 µM) | 16 (≈ 17.3 µM) | 0.5 to 1 | C[C@@H]1[C@H](O)[C@@H](C)/C=C/C=C/C=C/C=C/C=C/C=C/C=C/[C@H](O[C@@H]2O[C@H](C)[C@@H](O)[C@H](N)[C@@H]2O)C[C@@H]2O[C@](O)(C[C@@H](O)C[C@@H](O)[C@H](O)CC[C@@H](O)C[C@@H](O)CC(=O)O[C@H]1C)C[C@H](O)[C@H]2C(=O)O [Amphotericin B, reference compound] |  |  |
| 7.3 | 32 (≈ 101 µM) | 8 |  |  |  | COc1cccc(/C=N/NC(=O)c2cc(O)c(O)c(O)c2)c1O [Compound 2] | 34 |  |
| 9 ± 4 | 16 (≈ 41.6 µM) | 0.62 ± 0.03 |  |  |  | CN(C)CCNC(=O)c1ccc2oc(C(=O)c3cc(O)c(O)c(O)c3)cc2c1 [NED-2018, N-(2-(dimethylamino)ethyl)-2-(3,4,5-trihydroxybenzoyl)-benzofuran-5-carboxamide] | > 128 |  |
| 4.8 ± 0.5 | 8 (≈ 19.4 µM) | 0.49 ± 0.03 |  |  |  | CCN(CC)CCNC(=O)c1ccc2oc(C(=O)c3cc(O)c(O)c(O)c3)cc2c1 [NED-2019, N-(2-(diethylamino)ethyl)-2-(3,4,5-trihydroxybenzoyl)-benzofuran-5-carboxamide] | > 64 |  |
| 2.7 ± 0.5 | 32 (≈ 76.7 µM) | 1.7 |  |  |  | O=C(N/N=C/c1ccc(-c2ccc(Br)cc2)o1)c1cc(O)c(O)c(O)c1 [NED-2038, (E)-N′-((5-(4-bromophenyl)furan-2-yl)methylene)-3,4,5-trihydroxybenzohydrazide] | 1.1 |  |
